Measured values published in US7759101B2, “Ginsenoside glycosidases hydrolyzing ginsenoside sugar moieties and uses thereof” (priority 2000, dated 2010).

Experiments:
[1] = tested on: ginsenoside glycosidases from A. niger; test: Hydrolysis of ginsenosides with crude ginsenoside glycosidases from A. niger, products measured by TLC; type: biochemical, Aspergillus niger
Summary of the method: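 Crude enzyme from A. niger culture (1% ginseng extract, 3% wheat bran, 30° C., 54 h), 65% ammonium sulfate precipitate dialysed into 0.01 M acetate pH 5. Ginsenosides (100 mg; Rg3 10 mg) in 10 ml buffer plus 10 ml enzyme, 30° C., 18 h; stopped with n-butanol, products analysed by silica TLC.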

[2] = tested on: ginsenoside glycosidase I; test: Hydrolysis of ginsenosides with Fraction 36 (ginsenoside glycosidase I); type: biochemical, Aspergillus niger; conditions: pH 5.0, 30° C.
[3] = tested on: Cellobiose-producing enzyme from Clostridium; test: Comparison: hydrolysis of ginsenosides with cellobiose-producing enzyme; type: biochemical, Clostridium thermocopiriae; conditions: substrate 0.5%, pH 5.0, 30° C., 18 hours
Text: To observe the differences between the ginsenoside glycosidases of the invention and known exo-cellulases, the ginsenoside glycosidases of the invention were compared with cellulose β-glucosidase (E.C. 3.2.1.21) in two reactions with 0.5% ginsenosides Rb1 or Rd as substrate.
An exo-cellulase from Clostridium thermocopiriae (cellobiose-producing enzyme) cleaves cellodextrin to give cellobiose, but cannot hydrolyze diglucosidic bond at C-3 of ginsenoside Rd. So it is completely different from ginsenoside glycosidase III. Therefore, the ginsenoside glycosidases of the invention are enzymes different from known cellulose β-glucosidases and cellobiose-producing enzymes.

[4] = tested on: Enzymes from Plant Seeds—Almond; test: Hydrolysis of Rb1 with enzymes from almond; type: biochemical; conditions: 1% Rb1 solution, pH 5, 20% ethanol, 50° C., 14 hours
Experimental: 100 g of almond was ground and added to 300 ml of 0.01 M acetate buffer pH 5 for extraction under room temperature for two hours. The mixture was centrifuged. (NH4)2SO4 was added to the supernatant to 60% saturation to precipitate the enzymes. The mixture was stored at 4° C. overnight. Precipitates were collected by centrifugation and dialyzed against 0.01 M acetate buffer pH 5. Impurities were removed and 30 ml of enzyme solution was obtained. 10 ml of the enzyme solution was allowed to react with 10 ml of 1% Rb1 solution (in 0.01 M acetate buffer pH 5 containing 20% ethanol) at 50° C. for 14 hours.

[5] = Rb1 0.5%, pH 5.0, 30° C., 18 hours
[6] = Rb1 0.5%, pH 6.0, 30° C., 18 hours
[7] = Rb1 0.5%, pH 7.0, 30° C., 18 hours
[8] = Rb1 0.5%, pH 8.0, 30° C., 18 hours
[9] = Rb1 0.5%, reaction time 1 hours, pH 5, 30° C.
[10] = Rb1 0.5%, reaction time 4 hours, pH 5, 30° C.
[11] = Rb1 0.5%, reaction time 8 hours, pH 5, 30° C.
[12] = Rb1 0.5%, reaction time 12 hours, pH 5, 30° C.
[13] = Rb1 0.5%, reaction time 18 hours, pH 5, 30° C.
[14] = Rb1 0.5%, reaction time 24 hours, pH 5, 30° C.
[15] = Rb1 0.5%, reaction time 30 hours, pH 5, 30° C.
[16] = Rb1 0.5%, reaction time 36 hours, pH 5, 30° C.
[17] = Fraction 36, substrates Rb1, Rb2, Rc, Rd 0.5%, Rg3, F2, Rh2, C—K, Rg2 0.05%
[18] = Table 8, ginsenoside glycosidase I, substrate 0.5%, 18 hours

## CC(C)=CCC[C@](C)(O[C@@H]1O[C@H](CO[C@@H]2O[C@H](CO)[C@@H](O)[C@H](O)[C@H]2O)[C@@H](O)[C@H](O)[C@H]1O)[C@H]1CC[C@]2(C)[C@@H]1[C@H](O)C[C@@H]1[C@@]3(C)CC[C@H](O[C@@H]4O[C@H](CO)[C@@H](O)[C@H](O)[C@H]4O[C@@H]4O[C@H](CO)[C@@H](O)[C@H](O)[C@H]4O)C(C)(C)[C@@H]3CC[C@]12C [Rb1, ginsenoside Rb1]
[1]; [5]
  Percentage of Rh2 in the reaction product: 5%
  Percentage of aglycone in the reaction product: 5%
[1]; [6]
  Percentage of C—K in the reaction product: 21%
  Percentage of F2 in the reaction product: 56%
  Percentage of Rd in the reaction product: 15%
  Percentage of Rh2 in the reaction product: 4%
  Percentage of aglycone in the reaction product: 4%
[1]; [7]
  Percentage of C—K in the reaction product: 6%
  Percentage of F2 in the reaction product: 41%
  Percentage of Rb1 in the reaction product: 10%
  Percentage of Rd in the reaction product: 41%
  Percentage of Rg3 in the reaction product: 2%
  Percentage of Rh2 in the reaction product: 2%
  Percentage of aglycone in the reaction product: 2%
[1]; [8]
  Percentage of C—K in the reaction product: 6%
  Percentage of F2 in the reaction product: 36%
  Percentage of Rb1 in the reaction product: 20%
  Percentage of Rd in the reaction product: 45%
  Percentage of Rg3 in the reaction product: 3%
[1]; [9]
  Percentage of Rb1 in the reaction product: 38%
  Percentage of Rd in the reaction product: 62%
[1]; [10]
  Percentage of F2 in the reaction product: 10%
  Percentage of Rb1 in the reaction product: 12%
  Percentage of Rd in the reaction product: 72%
[1]; [11]
  Percentage of C—K in the reaction product: 2%
  Percentage of F2 in the reaction product: 38%
  Percentage of Rb1 in the reaction product: 8%
  Percentage of Rd in the reaction product: 51%
[1]; [12]
  Percentage of C—K in the reaction product: 6%
  Percentage of F2 in the reaction product: 54%
  Percentage of Rb1 in the reaction product: 6%
  Percentage of Rd in the reaction product: 30%
  Percentage of Rh2 in the reaction product: 2%
  Percentage of aglycone in the reaction product: 2%
[1]; [13]
  Percentage of C—K in the reaction product: 16%
  Percentage of F2 in the reaction product: 63%
  Percentage of Rd in the reaction product: 10%
  Percentage of Rh2 in the reaction product: 5%
  Percentage of aglycone in the reaction product: 5%
[1]; [14]
  Percentage of C—K in the reaction product: 24%
  Percentage of F2 in the reaction product: 60%
  Percentage of Rd in the reaction product: 8%
  Percentage of Rh2 in the reaction product: 4%
  Percentage of aglycone in the reaction product: 4%
[1]; [15]
  Percentage of C—K in the reaction product: 44%
  Percentage of F2 in the reaction product: 40%
  Percentage of Rd in the reaction product: 5%
  Percentage of Rg3 in the reaction product: 2%
  Percentage of Rh2 in the reaction product: 6%
  Percentage of aglycone in the reaction product: 3%
[1]; [16]
  Percentage of C—K in the reaction product: 52%
  Percentage of F2 in the reaction product: 30%
  Percentage of Rd in the reaction product: 2%
  Percentage of Rg3 in the reaction product: 3%
  Percentage of Rh2 in the reaction product: 7%
  Percentage of aglycone in the reaction product: 6%
[1]; pH 5, 30° C., 18 hours
  Percentage of C—K in the reaction product: 16%
  Percentage of F2 in the reaction product: 63%
  Percentage of Rb1 in the reaction product: 1%
  Percentage of Rd in the reaction product: 10%
  Percentage of Rh2 in the reaction product: 5%
  Percentage of aglycone in the reaction product: 5%
[2]; [17]
  Percentage of C—K in the reaction product: 49%
  Percentage of F2 in the reaction product: 38%
  Percentage of Rd in the reaction product: 8%
  Percentage of Rh2 in the reaction product: 1%
  Percentage of aglycone in the reaction product: 2%
[2]; [18]
  Percentage of C—K in the reaction product: 49%
  Percentage of F2 in the reaction product: 38%
  Percentage of Rd in the reaction product: 8%
  Percentage of Rh2 in the reaction product: 1%
  Percentage of aglycone in the reaction product: 2%
[3]
  Percentage of Rb1 in the reaction product: 100%
[4]
  Rb1 converted to ginsenosides with lower sugar contents: 40%
